Laboratory results from US20250257098A1, “NOVEL SST4 SELECTIVE AGONISTS AS NON-OPIOID ANALGESICS” (KØBENHAVNS UNIVERSITET, priority 2022, published 2025).

Tests used:
[1] = system: model of chronic neuropathic pain (spared nerve injury, SNI); design: species or system C57BL/6NRj mice; settings: mouse, in vivo
[2] = target: T1, human somatostatin receptor SST4 (Homo sapiens, UniProt P31391); type: cell-based
T1 construct: expressed in transfected cells; host or cells: HTLA cells

[3] = target: T2, human somatostatin receptor SST5 (Homo sapiens, UniProt P35346); type: cell-based
T2 construct: expressed in transfected cells; host or cells: HTLA cells

[4] = target: T3, human somatostatin receptor SST2 (Homo sapiens, UniProt P30874); type: cell-based
T3 construct: expressed in transfected cells; host or cells: HTLA cells

[5] = target: T4, human somatostatin receptor SST1 (Homo sapiens, UniProt P30872); type: cell-based
T4 construct: expressed in transfected cells; host or cells: HTLA cells

[6] = target: T5, human somatostatin receptor SST3 (Homo sapiens, UniProt P32745); type: cell-based
T5 construct: expressed in transfected cells; host or cells: HTLA cells

[7] = system: mouse model of post-surgical pain; design: species or system mice; settings: in vivo
[8] = system: LPS-stimulated mouse macrophages; type: cell-based, BALB/c mice

T1 sequence (P31391 whole entry): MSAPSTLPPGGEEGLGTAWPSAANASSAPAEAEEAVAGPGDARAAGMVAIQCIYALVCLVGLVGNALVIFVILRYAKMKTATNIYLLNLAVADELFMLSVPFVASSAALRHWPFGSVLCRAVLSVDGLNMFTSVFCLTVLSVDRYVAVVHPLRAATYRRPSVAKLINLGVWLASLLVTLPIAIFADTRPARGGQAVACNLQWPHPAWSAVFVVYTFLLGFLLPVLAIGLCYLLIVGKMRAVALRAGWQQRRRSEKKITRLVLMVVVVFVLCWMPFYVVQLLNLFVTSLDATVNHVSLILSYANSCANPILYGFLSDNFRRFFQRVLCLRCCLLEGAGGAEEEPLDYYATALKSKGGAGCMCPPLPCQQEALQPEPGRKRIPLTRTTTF
T5 sequence (P32745 whole entry): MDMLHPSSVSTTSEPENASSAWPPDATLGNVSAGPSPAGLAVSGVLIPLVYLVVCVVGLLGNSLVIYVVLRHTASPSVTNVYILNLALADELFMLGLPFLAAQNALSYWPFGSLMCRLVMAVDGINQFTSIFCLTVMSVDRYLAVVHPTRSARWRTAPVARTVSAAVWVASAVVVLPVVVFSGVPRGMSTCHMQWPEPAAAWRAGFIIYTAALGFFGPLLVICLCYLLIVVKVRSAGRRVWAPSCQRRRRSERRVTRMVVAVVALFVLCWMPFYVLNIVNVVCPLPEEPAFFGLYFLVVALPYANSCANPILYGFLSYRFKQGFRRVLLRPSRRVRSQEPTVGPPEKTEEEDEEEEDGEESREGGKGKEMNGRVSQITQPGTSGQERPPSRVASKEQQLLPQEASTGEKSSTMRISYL
T3 sequence (P30874 whole entry): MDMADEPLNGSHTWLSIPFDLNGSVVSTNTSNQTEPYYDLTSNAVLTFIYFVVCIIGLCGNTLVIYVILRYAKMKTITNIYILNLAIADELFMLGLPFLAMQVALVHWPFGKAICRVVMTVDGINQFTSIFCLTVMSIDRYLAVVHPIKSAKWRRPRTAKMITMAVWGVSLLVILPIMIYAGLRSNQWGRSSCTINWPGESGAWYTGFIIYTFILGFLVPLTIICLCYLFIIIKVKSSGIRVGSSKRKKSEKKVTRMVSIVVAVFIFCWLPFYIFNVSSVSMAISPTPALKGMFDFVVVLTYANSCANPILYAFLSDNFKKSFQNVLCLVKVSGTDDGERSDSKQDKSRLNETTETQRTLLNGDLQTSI
T2 sequence (P35346 whole entry): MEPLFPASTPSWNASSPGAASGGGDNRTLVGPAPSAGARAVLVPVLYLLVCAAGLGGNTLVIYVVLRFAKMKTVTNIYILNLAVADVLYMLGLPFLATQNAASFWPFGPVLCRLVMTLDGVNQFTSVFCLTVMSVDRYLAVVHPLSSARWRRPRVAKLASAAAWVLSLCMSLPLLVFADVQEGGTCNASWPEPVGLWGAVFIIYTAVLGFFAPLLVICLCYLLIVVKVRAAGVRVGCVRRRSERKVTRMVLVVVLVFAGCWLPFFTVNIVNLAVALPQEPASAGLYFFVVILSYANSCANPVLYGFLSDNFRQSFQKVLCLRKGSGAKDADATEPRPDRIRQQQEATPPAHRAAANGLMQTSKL
T4 sequence (P30872 whole entry): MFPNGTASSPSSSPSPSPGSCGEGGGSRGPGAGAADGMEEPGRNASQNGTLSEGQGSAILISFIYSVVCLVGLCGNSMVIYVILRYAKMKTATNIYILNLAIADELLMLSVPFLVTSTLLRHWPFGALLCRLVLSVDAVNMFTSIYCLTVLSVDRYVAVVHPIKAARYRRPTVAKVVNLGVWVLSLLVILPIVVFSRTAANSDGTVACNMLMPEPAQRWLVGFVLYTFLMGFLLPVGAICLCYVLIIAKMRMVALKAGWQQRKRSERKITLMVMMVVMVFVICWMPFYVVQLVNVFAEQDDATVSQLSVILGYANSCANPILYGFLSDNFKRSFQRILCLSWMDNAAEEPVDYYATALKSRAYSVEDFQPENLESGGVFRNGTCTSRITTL

PVCWKFGCPL [HSH-109, PVCwKFGCOL]
reduction of mechanical hypersensitivity [1]: very robust reduction of mechanical hypersensitivity | apparent potency at SST4 [2]: low nanomolar range | potency compared with Cont-Ro1 [2]: more potent | selectivity for SST4 compared with Cont-Ro1 [2]: more selective for SST4 than Cont-Ro1 | activation of SST5 [3]: did not significantly activate | activation of SST2 [4]: did not significantly activate | apparent potency at SST1 [5]: low micromolar range | activation of SST3 [6]: did not significantly activate | area under the curve larger than for Cont-Ro1 [7]: 39% | duration of effect compared with Cont-Ro1 [7]: longer lasting | duration of effect versus morphine positive control [7]: longer lasting than the morphine positive control | effect level compared with Cont-Ro1 [7]: tendency for a higher effect level of HSH-109 over Cont-Ro1 | expected efficacy [7]: expected to be fully efficacious | reduction of hypersensitivity [7]: robust reduction of hypersensitivity | reduction of MCP1 levels [8]: ~47% | reduction of TNFα levels [8]: ~62%
